According to PMC9301920, “Physiologically Based Toxicokinetic Modeling of Bisphenols in Zebrafish (Danio rerio) Accounting for Variations in Metabolic Rates, Brain Distribution, and Liver Accumulation” (Environmental Science & Technology, 2022):
Read-outs that look alike come from different tables or passages of the source.

Tests used:
zebrafish = assay: PBTK parameter fitting (Nelder–Mead algorithm) to in vivo zebrafish data; parameters: species or system zebrafish (Danio rerio); conditions: fitted on brain BPZ concentrations of current study; used for all bisphenols
Excerpt: Ovaries and eggs were assumed to receive the same blood flow. The equation for the egg compartment was described as follows using the diffusion-limited equation previously described by Thompson and Beard[51] [drawing 4] 4 where dAegg/dt represents the rate of change of bisphenol over time in the egg compartment, Agon and Aegg represent the amount of compound in the gonads and egg, respectively, Vgon and Vegg are the volumes of the gonads and eggs, respectively, and Pgon and Pegg are the partition coefficients of the gonads to blood and egg to gonads.
Parameter fitting was done in R using the modFit function in the FME package with the Nelder–Mead algorithm.[53]
279For fitting, the model was run using the exposure scenarios of each fitting data set.
280parameters were fixed as presented in Tables S10-S14 with exception of the parameter for
281which fitting was performed. The outcome evaluated by fitting algorithm was the concentration
282over time in the same tissue as the experimental data. Outcomes used for fitting to measured
283experimental data were: concentration in brain for brain-blood partition coefficient,
284concentration in liver for liver-blood partition coefficient, concentration in eggs for egg-gonad
285partition coefficient and whole-body metabolite concentration for Ke bile and KBG of metabolites.
286For the liver, brain and egg partitioning, the range was set between 0.01 and 500 and the Nelder-
287Mead algorithm was run with initial estimates at 1, 5, 10, 50 and 500 in order to assure a global
288minimum was found. The fitted values returning the lowest squared sum of residuals were used
The GI lumen to GI tract diffusion rate (K u)

Estrogen receptor (ER) = biological target: Estrogen receptor (ER); parameters: method as in Kitamura et al. 2005; conditions: ERE-luciferase reporter assay, MCF-7 cells; ref Kitamura et al. 2005; cited from earlier work
[1] = In vivo zebrafish kinetics of BPZ (water exposure, organ concentrations by LC-MS/MS); parameters: species or system zebrafish (Danio rerio); conditions: female, zebrafish; for concentration at 12 h / concentration at 483 h / concentration at 486 h / concentration at 492 h / concentration at 504 h / concentration at 576 h / concentration at 6 h / concentration at 24 h / concentration at 48 h / concentration at 72 h / concentration at 336 h / concentration at 411 h / concentration at 480 h: female zebrafish; for concentration at 483 h: 483 h (depuration phase); for concentration at 486 h: 486 h (depuration phase); for concentration at 492 h: 492 h (depuration phase); for concentration at 504 h: 504 h (depuration phase); for concentration at 576 h: 576 h (depuration phase); for concentration at 480 h: 480 h (one outlier fish removed); for Cmax / half-life: 17 μg/L in water, observed
Method: (§1) At sampling, adult fish were euthanized by immersion in a sodium bicarbonate-buffered tricaine methanesulfonate solution (MS222: 500 mg/L) and decapitated thereafter. […] Additionally, three whole fish were sampled at timepoints of 6, 12, and 24 h of the exposure phase. Water from the fish tank was sampled at 0, 12, 24, 48, 72, 168, 336, 411, and 480 h after exposure start as well as at 0, 12, 24, and 96 h after the start of depuration. Control fish and tank water were sampled before the start of exposure. All samples were immediately stored at −20 °C until further analysis. […]
(§2) 1223. In Vivo Zebrafish Kinetics of BPZ
(§3) 123Adult zebrafish were purchased from a local supplier in Uppsala, Sweden, and acclimatized for
(§4) 1246 weeks before the start of the study. The zebrafish were kept in 26 °C charcoal filtered tap
(§5) 173NH 4OH and 4 ml acetonitrile/tetrahydofuran (1:1) mixture. The 4 ml 2% formic acid in
(§6) 174methanol eluates were evaporated until dry. Remaining residues were then reconstituted in 50
(§7) 175µl water and methanol 50/50 v/v mixture. Extracts were stored at 4°C until measurement.
(§8) 176The extracts were measured on a LC (ExionLC, Sciex) coupled with a Turbo V Ion source (ESI)
(§9) 178Sciex). Separation of compound was done on a phenyl-hexyl column (Kinetex, 100 x 2.1 mm,
(§10) 1791.7 µm, Phenomenex) set at 45°C using a gradient of 0.2 mM NH 4F and 0.2 mM NH4F in
(§11) 180acetonitrile. The applied MRM transitions and MS/MS settings are described in Tables S5-S8.
(§12) LC column Kinetex Phenyl-hexyl column, 1.7 µm, 2,1 mm X 100
(§13) Delay column Isolator column, 2.1 mm X 100 mm (Waters)
(§14) Gradient 0.2 mM NH4F 0.2 mM NH4F in
(§15) 194limit of detection (LOD). The LOD is defined as three times the standard deviation of the blank
(§16) 195plus the average blank value. The limit of quantification (LOQ) is defined as 3.3 * LOD value
(§17) Blank pg/extract Recovery % Repeatability %
(§18) Detection and report limits (calculated on based of average sample intake)

female zebrafish = assay: as above; parameters: species or system zebrafish (Danio rerio); conditions: 17 μg/L in water, observed
Method: as §1, §2, §3, §4, §5, §6, §7, §8, §9, §10, §11, §12, §13, §14, §15, §16, §17, §18

[2] = brain, other: exposure via tank water, 10 μg/L (nominal water concentration), read-out: Mean concentration, brain
[3] = brain, other: water exposure, 10 µg/L, read-out: Mean concentration, brain
[4] = carcass, other: exposure via tank water, 10 μg/L (nominal water concentration), read-out: Mean concentration, carcass
[5] = carcass, other: water exposure, 10 µg/L, read-out: Mean concentration, carcass
[6] = liver, other: exposure via tank water, 10 μg/L (nominal water concentration), read-out: Mean concentration, liver
[7] = liver, other: water exposure, 10 µg/L, read-out: Mean concentration, liver
[8] = ovary, other: exposure via tank water, 10 μg/L (nominal water concentration), read-out: Mean concentration, ovary
[9] = ovary, other: water exposure, 10 µg/L, read-out: Mean concentration, ovary
[10] = whole body (calculated), other: water exposure, 10 µg/L, read-out: Mean concentration, whole body (calculated)
[11] = whole body, other: exposure via tank water, 10 μg/L (nominal water concentration), read-out: Mean concentration, whole body (calculated)
[12] = whole body, other: water exposure, 10 µg/L, read-out: Mean concentration, whole body (measured)
[13] = 17 μg/L (water concentration), brain
[14] = 17 μg/L (water concentration), carcass

Question: What does the source list for `Oc1ccc(C2(c3ccc(O)cc3)CCCCC2)cc1` [BPZ, bisphenol Z]?
Answer: Pbb (brain to blood partition coefficient) (zebrafish): 0.42; EC50 (Estrogen receptor (ER)): 210 nM; concentration at 12 h [1, 2]: 82.1 ng/g; concentration at 483 h [1, 2]: 14.4 ng/g; concentration at 486 h [1, 2]: 7.9 ng/g; concentration at 492 h [1, 2]: < 2.5 ng/g; concentration at 504 h [1, 2]: < 3 ng/g; concentration at 576 h [1, 2]: < 2.5 ng/g; concentration at 6 h [1, 3]: 72 ng/g; concentration at 24 h [1, 3]: 116 ng/g; concentration at 48 h [1, 3]: 64.4 ng/g; concentration at 72 h [1, 3]: 170 ng/g; concentration at 336 h [1, 3]: 156 ng/g; concentration at 411 h [1, 3]: 150 ng/g; concentration at 480 h [1, 3]: 61.4 ng/g; concentration at 480 h [1, 4]: 249 ng/g; concentration at 483 h [1, 4]: 133 ng/g; concentration at 486 h [1, 4]: 24.3 ng/g; concentration at 492 h [1, 4]: 18.9 ng/g; concentration at 504 h [1, 4]: 8.3 ng/g; concentration at 576 h [1, 4]: 1.6 ng/g; concentration at 6 h [1, 5]: 160 ng/g; concentration at 12 h [1, 5]: 261 ng/g; concentration at 24 h [1, 5]: 671 ng/g; concentration at 48 h [1, 5]: 612 ng/g; concentration at 72 h [1, 5]: 1120 ng/g; concentration at 336 h [1, 5]: 348 ng/g; concentration at 411 h [1, 5]: 557 ng/g; concentration at 12 h [1, 6]: 57.5 ng/g; concentration at 483 h [1, 6]: 252 ng/g; concentration at 486 h [1, 6]: 71.3 ng/g; concentration at 492 h [1, 6]: 11 ng/g; concentration at 504 h [1, 6]: 12.4 ng/g; concentration at 576 h [1, 6]: 4.4 ng/g; concentration at 6 h [1, 7]: 182 ng/g; concentration at 24 h [1, 7]: 364 ng/g; concentration at 48 h [1, 7]: 225 ng/g; concentration at 72 h [1, 7]: 536 ng/g; concentration at 336 h [1, 7]: 146 ng/g; concentration at 411 h [1, 7]: 232 ng/g; concentration at 480 h [1, 7]: 1010 ng/g; concentration at 12 h [1, 8]: 113 ng/g; concentration at 480 h [1, 8]: 69.3 ng/g; concentration at 483 h [1, 8]: 108 ng/g; concentration at 486 h [1, 8]: 108 ng/g; concentration at 492 h [1, 8]: 84.5 ng/g; concentration at 504 h [1, 8]: 48.3 ng/g; concentration at 576 h [1, 8]: 1 ng/g; concentration at 6 h [1, 9]: 85.3 ng/g; concentration at 24 h [1, 9]: 146 ng/g; concentration at 48 h [1, 9]: 146 ng/g; concentration at 72 h [1, 9]: 259 ng/g; concentration at 336 h [1, 9]: 269 ng/g; concentration at 411 h [1, 9]: 214 ng/g; concentration at 12 h [1, 10]: 203 ng/g; concentration at 24 h [1, 10]: 530 ng/g; concentration at 48 h [1, 10]: 500 ng/g; concentration at 72 h [1, 10]: 900 ng/g; concentration at 336 h [1, 10]: 296 ng/g; concentration at 411 h [1, 10]: 472 ng/g; concentration at 6 h [1, 11]: 130 ng/g; concentration at 6 h ([1]; whole body, other: exposure via tank water, 10 μg/L (nominal water concentration), read-out: Mean concentration, whole body (measured)): 215 ng/g; concentration at 480 h [1, 11]: 449 ng/g; concentration at 483 h [1, 11]: 128 ng/g; concentration at 486 h [1, 11]: 35.1 ng/g; concentration at 492 h [1, 11]: 28.2 ng/g; concentration at 504 h [1, 11]: 14.5 ng/g; concentration at 576 h [1, 11]: 1.5 ng/g; concentration at 12 h [1, 12]: 336 ng/g; concentration at 24 h [1, 12]: 435 ng/g; Cmax [1, 13]: 170 ng/g; half-life [1, 13]: 135 h; Cmax [1, 14]: 1120 ng/g; half-life [1, 14]: 119 h; Cmax ([1]; liver): 1010 ng/g; half-life ([1]; liver): 210 h; Cmax ([1]; ovaries): 270 ng/g; half-life ([1]; ovaries): 247 h; Cmax ([1]; whole body): 900 ng/g; half-life ([1]; whole body): 134 h; AUC (female zebrafish; brain): 2.85 µg/g/day; BCF (female zebrafish; brain): 10.0; AUC (female zebrafish; carcass): 12.5 µg/g/day; BCF (female zebrafish; carcass): 65.9; AUC (female zebrafish; liver): 7.07 µg/g/day; BCF (female zebrafish; liver): 59.2; AUC (female zebrafish; ovaries): 4.70 µg/g/day; BCF (female zebrafish; ovaries): 15.8; AUC (female zebrafish; whole body): 10.6 µg/g/day; BCF (female zebrafish; whole body): 52.9
